# What was measured:
# [1] = in vivo; cited from earlier work
# [2] = system: endothelium; assay: Plasma biomarkers (ELISA) of endothelial, glycocalyx, necrosis and anticoagulation status in healthy volunteers after Flolan infusion; format: in vivo, human; details: 8 healthy volunteers, 4 ng/kg/min i.v. for 2 h
# Procedure: Eight healthy volunteers were administered Flolan® (Prostacyclin) intravenously at a dose of 4 ng/kg/min for 2 h. Blood samples were analyzed for plasma biomarkers indicative of endothelial cell (thrombomodulin, PAI-1) and glycocalyx (syndecan-1) activation and/or damage, cellular necrosis (histone-complexed DNA fragments, HMGB1) and anticoagulation (protein C, antithrombin, TFPI) at the following time points: Before the infusion (0 h), immediately after ceasing the infusion (2 h) and then 4 h, 5 h, 6 h, 8 h and 24 h after starting the infusion. The concentration of the individual biomarkers in plasma was analyzed by commercially available ELISA kits according to the manufactures recommendations. Paired t-tests with p-values <0.05 were considered significant.
# [3] = Blood pressure and heart rate in healthy volunteers during intravenous flolan infusion; format: in vivo, human; details: 4 ng/kg/min i.v. for 2 h, any time point
# Procedure: (§1) Six healthy volunteers were administered flolan (Prostacycline) intravenously at a dose of 4 ng/kg/min for 2 h. Blood samples for whole blood viscoelastical assay (Thrombelastography [TEG]) and whole blood platelet aggregation (Multiplate) were obtained before infusion of Flolan, after 60 min infusion of Flolan and after 120 min infusion of Flolan.
# [4] = human, in vivo
# Procedure: Ninety-four critically ill patients admitted to the intensive care unit (ICU) underwent haemofiltration with or without concomitant Flolan (prostacycline) treatment. None of the patients were suffering from Acute Traumatic Coagulopathy nor from sequelae to cardiac arrest. Flolan was administered in a low dose in the filters to prevent these from clotting and consequently there was only a minor spill over of Flolan to the systemic circulation. The patients were retrospectively reviewed.
# However, patients in the flolan group were more severely ill as evaluated by a lower platelet count at start of hemofiltration, a higher frequency of severe thrombocytopenia, a higher frequency of DIC diagnoses, a higher maximum SOFA score and a higher SOFA score at hemofiltration initiation as compared to the patients receiving non-flolan.
# [5] = system: whole blood platelet aggregation; assay: Whole blood impedance aggregometry (Multiplate) in healthy volunteers infused with flolan; format: in vivo, human; details: 6 healthy volunteers, 4 ng/kg/min i.v., after 60 and 120 min infusion
# Procedure: as §1
# Whole blood impedance aggregometry was analyzed by the Multiple Platelet function Analyzer (MultiPlate® analyzer). Analysis employing various platelet agonists: ASPItest (activation by arachidonic acid), COLtest (activation by collagen through the collagen receptor), TRAPtest (activation by TRAP-6 stimulates the thrombin receptor on the platelet surface and ADPtest (activation by ADP stimulates platelet activation by the ADP receptors).
# MultiPlate continuously records platelet aggregation. The increase of impedance by the attachment of platelets onto the Multiplate sensors is transformed to arbitrary aggregation units (AU) and plotted against time as depicted in FIG. 2.
# [6] = system: whole blood; assay: Whole blood viscoelastical assay (Thrombelastography, TEG) in healthy volunteers infused with flolan; format: in vivo, human; details: 6 healthy volunteers, 4 ng/kg/min i.v., after 60 and 120 min infusion; kaolin
# Procedure: Six healthy volunteers were administered flolan (Prostacycline) intravenously at a dose of 4 ng/kg/min for 2 h. Blood samples for whole blood viscoelastical assay (Thrombelastography [TEG]) and whole blood platelet aggregation (Multiplate) were obtained before infusion of Flolan, after 60 min infusion of Flolan and after 120 min infusion of Flolan. With regard to the TEG assay this was performed as recommended by the manufacturer and 340 μl are mixed with 20 μl CaCl 0.2 M (final concentration 11.1 mM in the cup) and kaolin at 37° C. after which the haemostatic activity is recorded as depicted in FIG. 1.
smiles,measurement,setting,value
"CC#CCC(C)[C@H](O)/C=C/[C@@H]1[C@H]2c3cccc(CCCC(=O)O)c3O[C@H]2C[C@H]1O (mixture of isomers) [Beraprost, beraprost]",half time,[1],35 to 40 min
"CCCCC[C@H](O)/C=C/[C@@H]1[C@H]2C/C(=C/CCCC(=O)O)O[C@H]2C[C@H]1O [Flolan, epoprostenol sodium]",cell necrosis biomarker HMGB1,[2],did not influence
same,cell necrosis biomarker histone-complexed DNA fragments,[2],did not influence
same,circulating level of PAI-1,[2],declined
same,circulating level of TFPI (affected or not),[2],did not
same,circulating level of antithrombin,[2],decreased
same,glycocalyx shedding (syndecan-1),[2],did not induce or influence
same,HMGB1 at 5 h,"[2]; 5 h after starting infusion, p=0.056",tendency towards a reduction
same,circulating level of thrombomodulin,[2]; effect continuing for several hours after ceasing infusion,marked decrease
same,circulating level of Protein C,[2]; in the hours after ceasing infusion,decreased
same,"blood pressure, change from baseline",[3],did not change
same,"heart rate, change from baseline",[3],did not change
same,half time,[1],0.5 to 3 min
same,Platelet count (difference before vs. after haemofiltration),[4],+14
same,haemostatic competence as evaluated by transfusion requirements,[4],does not negatively influence
same,total transfusion requirements and specifically of FFP during hemofiltration,[4],increased
same,"Multiplate values (ASPI, COL, ADP, TRAP), baseline vs. samples during infusion",[5],no significant difference
same,"TEG values (R, Angle, MA), baseline vs. samples during infusion",[6],No significant difference
"CC#CCC(C)[C@H](O)/C=C/[C@@H]1[C@H]2C/C(=C/CCCC(=O)O)C[C@H]2C[C@H]1O (some centres unmarked) [Iloprost, iloprost]",half time,[1],20 to 30 min
"CCCCC[C@H](O)CC[C@@H]1[C@H]2Cc3cccc(OCC(=O)O)c3C[C@H]2C[C@H]1O [Treprostinil, treprostinil]",half time,[1],less than 4 hours
